Test results: patent US7524885B2, “Compounds that stimulate glucose utilization and methods of use” (The Governors of the University of Alberta, priority 2002, dated 2009)

tested on: isolated working rat heart; experiment: Glucose oxidation in isolated perfused working rat heart ([U-14C]glucose, 14CO2 production); details: Table 2A; screening concentration 100 μM; isolated working rat heart; read-out: Glucose Oxidation (% above control)
Protocol: Rat hearts were cannulated for isolated working heart 60 minute aerobic perfusions as described in J Pharmacol Exp Ther. 1993; 264:135-144, the entire disclosure of which is incorporated herein by reference.
Male Sprague-Dawley rats (0.3-0.35 kg) were anesthetized with pentobarbital sodium (60 mg/kg IP) and hearts were quickly excised, the aorta was cannulated and a retrograde perfusion at 37° C. was initiated at a hydrostatic pressure of 60 mm Hg. Hearts were trimmed of excess tissue, and the pulmonary artery and the opening to the left atrium were then cannulated. After 15 min of Langendorff perfusion, hearts were switched to the working mode by clamping the aortic inflow line from the Langendorff reservoir and opening the left atrial inflow line. The perfusate was delivered from an oxygenator into the left atrium at a constant preload pressure of 11 mm Hg. Perfusate was ejected from spontaneously beating hearts into a compliance chamber (containing 1 ml of air) and into the aortic outflow line. The afterload was set at a hydrostatic pressure of 80 mm Hg. All working hearts were perfused with Krebs'-Henseleit solution containing calcium 2.5 mmol/L, glucose 5.5 mmol/L, 3% bovine serum albumin (fatty acid free, initial fractionation by heat shock, Sigma), and with 1.2 mmol/L palmitate. Palmitate was bound to the albumin as described in J Bio Chem. 1992; 267:3825-3831, the entire disclosure of which is incorporated herein by reference.
The perfusate was recirculated, and pH was adjusted to 7.4 by bubbling with a mixture containing 95% O2 and 5% CO2.
Spontaneously beating hearts were used in all perfusions. Heart rate and aortic pressure were measured with a Biopac Systems Inc. blood pressure transducer connected to the aortic outflow line. Cardiac output and aortic flow were measured with Transonic T206 ultrasonic flow probes in the preload and afterload lines, respectively. Coronary flow was calculated as the difference between cardiac output and aortic flow. Cardiac work was calculated as the product of systolic pressure and cardiac output.
Measurement of Glucose Oxidation: Glucose oxidation was measured simultaneously by perfusing hearts with [U-^14C] glucose according to the procedures discussed in Saddik M, et al., J Bio Chem. 1992; 267:3825-3831. The entire disclosure of this reference is incorporated herein by reference. The total myocardial ^14CO2 production was determined at 10-min intervals from the 60-min aerobic period. Glucose oxidation rates were determined by quantitative measurement of ^14CO2 production as described in Barbour RL, et al., Biochemistry. 1984; […]. The entire disclosure of this reference is incorporated herein by reference. ^14CO2 production for the control group were compared with the ^14CO2 production for the group treated with cyclopropanecarboxylic acid, 2-[2-(2-methoxy-ethoxy)-ethoxy]-ethyl ester. Results are shown on FIG. 1 and TABLE 2A.
The procedure of Example A for was followed except that cyclobutanecarboxylic acid, 2-[2-(2-methoxy-ethoxy)-ethoxy]-ethyl ester in 1 μM, 10 μM, 100 μM and 1000 μM amounts was added to the buffer in place of the cyclopropanecarboxylic acid, 2-[2-(2-methoxy-ethoxy)-ethoxy]-ethyl ester. The results are illustrated in FIG. 2 and TABLE 2A.
The procedure of Example A was followed except that cyclopropanecarboxylic acid, 2-isopropoxy-ethyl ester in 1 μM, 10 μM, 100 μM and 1000 μM amounts was added to the buffer in place of the cyclopropanecarboxylic acid, 2-[2-(2-methoxy-ethoxy)-ethoxy]-ethyl ester. The results are illustrated in FIG. 3 and TABLE 2A.
The procedure of Example A was followed except that various cyclobutanecarboxylic acid derivatives, cyclopropanecarboxylic acid derivatives and cyclobutanecarboxylic acid in the amounts of 100 μM or 1000 μM was added to the buffer in place of the cyclopropanecarboxylic acid, 2-[2-(2-methoxy-ethoxy)-ethoxy]-ethyl ester.

| Compound | activation at 100 µM [%] |
| --- | --- |
| CC(C)OCCOC(=O)C1CCC1 [Compound 18MM071, Cyclobutanecarboxylic acid 2-isopropoxy-ethyl ester] | 97 |
| O=C(OCCOCCOCCOC(=O)C1CCC1)C1CCC1 [Compound 22MM075, Cyclobutanecarboxylic Acid, 2-[2-(2-cyclobutanecarbonyloxy-ethoxy)-ethoxy]-ethyl ester] | 184 |
| O=C(OCCN(CCOC(=O)C1CC1)CCN(CCOC(=O)C1CC1)CCOC(=O)C1CC1)C1CC1 [Compound 23MM076, Cyclopropanecarboxylic acid 2-[{2-[bis(2-cyclopropanecarbonyloxy-ethyl)-amino]-ethyl}-(2-cyclopropanecarbonyloxy-ethyl)-amino] ethyl ester] | 274 |
| CN(C)CCOCCOC(=O)C1CCC1 [Compound 10MM063, Cyclobutanecarboxylic acid 2-(2-dimethylamino-ethoxy)-ethyl ester] | 41 |
| COCCOCCOC(=O)C1CCC1 [Compound 14MM067, Cyclobutanecarboxylic acid 2-(2-methoxy-ethoxy)-ethyl ester] | 50 |
| CN(C)CCOCCOC(=O)C1CC1 [Compound 9MM062, Cyclopropanecarboxylic acid 2-(2-dimethylamino-ethoxy)-ethyl ester] | 77 |
| CC(C)OCCOC(=O)C1CC1 [Compound 17MM070, Cyclopropanecarboxylic acid 2-isopropoxy-ethyl ester] | 208 |
| COCCOCCOCCOC(=O)C1CC1 [Compound 1MM054, Cyclopropanecarboxylic acid 2-[2-(2-methoxy-ethoxy)-ethoxy]-ethyl ester] | 102 |
| COCCOCCOC(=O)C1CC1 [Compound 13MM066, Cyclopropanecarboxylic acid 2-(2-methoxy-ethoxy)-ethyl ester] | 20 |
| CCOCCOC(=O)C1CCC1 [Compound 16MM069, Cyclobutanecarboxylic acid 2-ethoxy-ethyl ester] | 162 |
| O=C(OCCOCCOCc1ccccc1)C1CC1 [Compound 4MM057, Cyclopropanecarboxylic acid 2-(2-benzyloxy-ethoxy)-ethyl ester] | 104 |
| O=C(OCCOCCOCCOC(=O)C1CC1)C1CC1 [Compound 21MM074, Cyclopropanecarboxylic acid, 2-[2-(2-cyclopropanecarbonyloxy-ethoxy)-ethoxy]-ethyl ester] | 228 |
| CC(C)OCCOC(=O)[C@@H]1C[C@H]1c1ccccc1 (racemic) [Compound 25MM078, trans-2-Phenyl-cyclopropanecarboxylic acid 2-isopropoxy-ethyl ester] | 200 |
| CCCCCCOCCOCCOC(=O)C1CCC1 [Compound 12MM065, Cyclobutanecarboxylic acid 2-(2-hexyloxy-ethoxy)-ethyl ester] | 0 |
| O=C(OCCOCCOC(=O)C1CC1)C1CC1 [Compound 19MM072, Cyclopropanecarboxylic acid, 2-(2-cyclopropanecarbonyloxy-ethoxy)-ethyl ester] | 97 |
| CCOCCOC(=O)C1CC1 [Compound 15MM068, Cyclopropanecarboxylic acid 2-ethoxy-ethyl ester] | 416 |
| CCCCCCOCCOCCOC(=O)C1CC1 [Compound 11MM064, Cyclopropanecarboxylic acid 2-(2-hexyloxy-ethoxy)-ethyl ester] | 83 |
| O=C(OCCOCCOC(=O)C1CCC1)C1CCC1 [Compound 20MM073, Cyclobutanecarboxylic acid, 2-(2-cyclobutanecarbonyloxy-ethoxy)-ethyl ester] | 243 |

same assay, conditions: Table 2A; screening concentration 1000 μM; isolated working rat heart; read-out: Glucose Oxidation (% above control)

| Compound | activation at 1000 µM [%] |
| --- | --- |
| O=C(O)CNC(=O)C1CCC1 [Compound 2MM055, (Cyclobutanecarbonyl-amino)-acetic acid] | 58 |

same assay, conditions: Table 2B; screening concentration 100 μM; isolated working rat heart; read-out: Glucose Oxidation (% above control)

| Compound | activation at 100 µM [%] |
| --- | --- |
| CCOCCOC(=O)C1(C(=O)OCCOCC)CC1 [Compound 31MM084, Cyclopropane-1,1-dicarboylic acid bis-(2-ethoxy-ethyl) ester] | 197 |
| COCCOCCOCCOC(=O)C1(c2ccccc2)CC1 [Compound 44MM097, 1-phenyl-cyclopropanecarboxylic acid 2[2-(2-methoxy-ethoxy)-ethoxy]-ethyl ester] | 125 |
| CCOCCOC(=O)C1(c2ccccc2)CC1 [Compound 27MM080, 1-Phenyl-cyclopropanecarboxylic acid 2-ethoxy-ethyl ester] | 148 |
| CCOCCOC(=O)C1(c2ccc(OC)cc2)CC1 [Compound 43MM096, 1-(4-methoxy-phenyl)-cyclopropanecarboxylic acid 2-ethoxy-ethyl ester] | 93 |
| CC(=O)NCCSC(=O)C1CC1 [Compound 38MM091, Cyclopropanecarbothioic acid S-(2-acetylamino-ethyl) ester] | 176 |
| O=C(OC[C@H]1O[C@H](OC(=O)C2CC2)[C@H](OC(=O)C2CC2)[C@@H](OC(=O)C2CC2)[C@@H]1OC(=O)C1CC1)C1CC1 [Compound 35MM088, 1,2,3,4,6-penta-O-(cyclopropanecarbonyl)-D-glucopyranose] | 205 |
| CCC1(COC(=O)C2CC2)COCOC1 [Compound 40MM093, Cyclopropanecarboxylic acid 5-ethyl-[1,3]-dioxan-5.ylmethyl ester] | 260 |
| O=C(OCC1COc2ccccc2O1)C1CC1 (stereo not shown) [Compound 41MM094, Cyclopropanecarboxylic acid 2,3-dihydro-benzo(1,4)dioxin-2-ylmethyl ester] | 389 |
| COCCOC(=O)C1CC1 [Compound 30MM083, Cyclopropanecarboxylic acid, 2-Methoxy-ethyl ester] | 197 |
| CCOCCOC(=O)[C@]1(/C=C/c2ccccc2)C[C@H]1c1ccccc1 [Compound 34MM087, (1S,2S)-2-phenyl-1-styrl-cyclopropanecarboxylic acid 2 ethoxy-ethyl ester] | 112 |
| CCOCCOC(=O)C1C(C)(C)C1(C)C [Compound 29MM082, 2,2,3,3-Tetramethyl-cyclopropanecarboxylic acid, 2-Ethoxy-ethyl ester] | 110 |
| O=C(OCCOC(=O)C1CC1)C1CC1 [Compound 45MM098, Cyclopropanecarboxylic acid 2-cyclopropanecarbonyloxy-ethyl ester] | 358 |
| CCOCCOC(=O)C1(C)CC1 [Compound 28MM081, 1-Methyl-cyclopropanecarboxylic acid, 2-Ethoxy-ethyl ester] | 121 |
| O=C(OCCOC(=O)C1(c2ccccc2)CC1)C1(c2ccccc2)CC1 [Compound 46MM099, 1-(1-Phenyl-1-cyclopropanecarboxylic acid)-2-(1-phenyl-1-cyclopropanecarbonyloxy)-ethyl ester] | 93 |
| Cc1ncsc1CCOC(=O)C1CC1 [Compound 36MM089, Cyclopropanecarboxylic acid 2-(4-methyl-thiazol-5-yl)-ethyl ester] | 202 |
| O=C(SCc1ccco1)C1CC1 [Compound 42MM095, Cyclopropanecarbothioic acid S-furan-2-yl methyl ester] | 314 |

same assay, conditions: intact heart

| Compound | stimulation of glucose oxidation in the heart (in words) |
| --- | --- |
| O=C(O)C1CC1 [MM001, Cyclopropanecarboxylic acid] | stimulator of glucose oxidation |
| O=C(O)C1CCC1 [MM013, Cyclobutanecarboxylic acid] | stimulate glucose oxidation |
